In ChEMBL document CHEMBL1123767, “High-affinity leukotriene receptor antagonists. Synthesis and pharmacological characterization of 2-hydroxy-3-[(2-carboxyethyl)thio]-3-[2-(8-phenyloctyl)phenyl] propanoic acid” (J Med Chem, 1987) one finds pKb and Ki data, which are given here for 4 compounds.

The species entered for experiment [1] is Cavia porcellus. Description: In vitro ability to antagonize LTD4-induced contractions of guinea pig smooth muscle (trachea) at 10 uM concentration. The class given is functional.
The target of experiment [2] is T1, Cysteinyl leukotriene receptor 1 (Cavia porcellus, UniProt Q2NNR5).
T1 sequence (Q2NNR5 whole entry): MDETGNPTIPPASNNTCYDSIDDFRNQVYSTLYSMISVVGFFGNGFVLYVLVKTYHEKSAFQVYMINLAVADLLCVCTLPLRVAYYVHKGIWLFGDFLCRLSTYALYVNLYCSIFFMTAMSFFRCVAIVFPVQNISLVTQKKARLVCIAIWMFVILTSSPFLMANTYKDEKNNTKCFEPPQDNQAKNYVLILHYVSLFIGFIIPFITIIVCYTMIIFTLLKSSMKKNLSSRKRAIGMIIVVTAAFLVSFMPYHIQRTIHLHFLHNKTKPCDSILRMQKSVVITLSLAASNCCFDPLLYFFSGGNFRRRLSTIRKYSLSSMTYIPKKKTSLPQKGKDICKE
Description: Binding affinity against Cysteinyl leukotriene D4 receptor in guinea pig lung membranes using [3H]LTD4 as the radioligand. It counts as cell membranes, Membrane.

Experiment [3] has as its target T2, Cysteinyl leukotriene receptor 1 (Cavia porcellus) (UniProt Q2NNR5).
T2 sequence (whole entry): T1 sequence (Q2NNR5 whole entry)
Description: (§1) In vitro ability to antagonize LTC4-induced contractions of guinea pig smooth muscle (trachea) at 10 uM concentration. The class given is functional, tissue-based.

The species entered for experiment [4] is Cavia porcellus. The experiment is described as §1. The class given is functional.
For experiment [5], the species on record is Homo sapiens. Description: Ability to antagonize LTD4-induced contractions of human airway smooth muscle (bronchus) at 10 uM concentration. It counts as functional.
For experiment [6], the species on record is Homo sapiens. Put plainly: In vitro ability to antagonize LTC4-induced contractions of human smooth muscle (bronchus) at 10 uM concentration. The class given is functional.
Experiment [7] is filed under the species Homo sapiens. Put plainly: In vitro ability to antagonize LTC4-induced contractions of human smooth muscle (bronchus) at 3 uM concentration. The class given is functional.
The species named for experiment [8] is Cavia porcellus. Description: In vitro ability to antagonize LTD4-induced contractions of guinea pig smooth muscle (trachea) at 3 uM concentration. The class given is functional.
Experiment [9] is filed under the species Homo sapiens. Put plainly: In vitro ability to antagonize LTD4-induced contractions of human airway smooth muscle (bronchus) at 3 uM concentration. The class given is functional.
In experiment [10] the target is T2, Cysteinyl leukotriene receptor 1 (Cavia porcellus). Particulars: Trachea, 3 uM.
Description: In vitro ability to antagonize LTC4-induced contractions of guinea pig smooth muscle (trachea) at 3 uM concentration.
Experiment [11] addresses T3, Cysteinyl leukotriene receptor 1 (Homo sapiens, UniProt Q9Y271).
T3 sequence (Q9Y271 whole entry): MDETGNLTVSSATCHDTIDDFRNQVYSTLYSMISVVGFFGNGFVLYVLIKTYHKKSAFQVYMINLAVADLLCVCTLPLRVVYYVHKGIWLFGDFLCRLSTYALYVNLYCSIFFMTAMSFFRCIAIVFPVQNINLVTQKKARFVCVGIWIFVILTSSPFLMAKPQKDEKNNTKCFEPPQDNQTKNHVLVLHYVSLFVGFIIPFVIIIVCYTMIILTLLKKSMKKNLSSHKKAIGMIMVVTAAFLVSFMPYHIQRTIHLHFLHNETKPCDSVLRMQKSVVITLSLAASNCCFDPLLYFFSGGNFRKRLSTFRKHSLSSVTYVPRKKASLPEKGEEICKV
Put plainly: Binding affinity against Cysteinyl leukotriene D4 receptor in human lung membranes using [3H]LTD4 as the radioligand. It counts as cell membranes, Membrane.

On to `O=C(O)CCS[C@@H](c1ccccc1CCCCCCCCc1ccccc1)[C@H](O)C(=O)O`, for which the pKb (usually the negative decadic logarithm of the Kb, by convention in mol/L) in [1] amounted to 6.1. Further, the Ki (usually the dissociation constant of the complex between target and ligand, obtained from inhibition or displacement) in experiment [2] came to 180 nM.

With `O=C(O)CCSC(CC(=O)O)c1ccccc1CCCCCCCCc1ccccc1` (stereo not given), the pKb amounted to 7 in experiment [1] and 5.1 in [3]. In addition, in [2], the Ki came to 60 nM.

For `CCCc1c(OCC(O)COc2ccc3c(=O)cc(C(=O)O)oc3c2CCC)ccc(C(C)=O)c1O` (stereo not given) [FPL-55712], the pKb is given as 6.7 in experiment [1], 4.9 in experiment [4], 5.8 in [5] and 6.4 in experiment [6].

In the case of `O=C(O)CCS[C@H](c1ccccc1CCCCCCCCc1ccccc1)[C@@H](O)C(=O)O` [POBILUKAST], the pKb in experiment [7] was 8.3; in experiment [8], 8.6; in experiment [9] it was 8.2; in experiment [10], less than 5.4. For the same compound, the Ki in [2] was found to be 5 nM; in experiment [11] it was 10 nM.
